Results: patent US8030321B2, “Benzofuro- and benzothienopyrimidine modulators of the histamine H4 receptor” (Janssen Pharmaceutica, NV, priority 2006, dated 2011)
Counter-ions that a name gives are not always drawn. Like-named read-outs stand apart in the source and are kept apart here.

Target: T1, human histamine H4 receptor (Homo sapiens, UniProt Q9H3N8)
T1 construct: expressed in transfected cells; host or cells: SK-N-MC cells or COS7 cells, transiently transfected; cell membranes used
Experiment: Binding Assay on Recombinant Human Histamine H4 Receptor
Procedure: Binding Assay on Recombinant Human Histamine H4 Receptor
SK-N-MC cells or COS7 cells were transiently transfected with pH4R and grown in 150 cm^2 tissue culture dishes. Cells were washed with saline solution, scraped with a cell scraper and collected by centrifugation (1000 rpm, 5 min). Cell membranes were prepared by homogenization of the cell pellet in 20 mM Tris-HCl with a polytron tissue homogenizer for 10 sec at high speed. Homogenate was centrifuged at 1000 rpm for 5 min at 4° C. […] The final pellet was resuspended in 50 mM Tris-HCl. Cell membranes were incubated with ^3H-histamine (5-70 nM) in the presence or absence of excess histamine (10,000 nM). […] Membranes were harvested by rapid filtration over Whatman GF/C filters and washed 4 times with ice-cold 50 mM Tris HCl. Filters were then dried, mixed with scintillant and counted for radioactivity. SK-N-MC or COS7 cells expressing human histamine H4 receptor were used to measure the affinity of binding of other compounds and their ability to displace ^3H-ligand binding by incubating the above-described reaction in the presence of various concentrations of inhibitor or compound to be tested.

[1] = competition binding with 3H-histamine (5 nM), membranes of SK-N-MC or COS7 cells expressing human H4 receptor, Cheng-Prusoff, KD 5 nM, average of results obtained, read-out: Ki

T1 sequence (Q9H3N8 whole entry): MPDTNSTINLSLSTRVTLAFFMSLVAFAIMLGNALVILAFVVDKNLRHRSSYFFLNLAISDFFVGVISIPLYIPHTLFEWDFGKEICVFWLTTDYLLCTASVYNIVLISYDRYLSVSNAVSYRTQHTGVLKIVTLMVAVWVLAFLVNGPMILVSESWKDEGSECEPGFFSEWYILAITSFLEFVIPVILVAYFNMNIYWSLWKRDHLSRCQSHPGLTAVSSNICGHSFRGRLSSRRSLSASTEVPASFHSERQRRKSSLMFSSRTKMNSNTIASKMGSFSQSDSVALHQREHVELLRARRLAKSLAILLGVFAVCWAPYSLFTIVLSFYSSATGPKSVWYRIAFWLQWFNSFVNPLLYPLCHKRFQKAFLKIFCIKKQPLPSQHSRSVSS

| SMILES | Ki [1] [nM] | Ki [nM] |
| --- | --- | --- |
| CN[C@@H]1CCN(c2nc(N)nc3c2sc2ccc(Cl)cc23)C1 [Example 66, (R)-8-Chloro-4-(3-methylamino-pyrrolidin-1-yl)-benzo[4,5]thieno[3,2-d]pyrimidin-2-ylamine trifluoroacetic acid salt] | 1 | – |
| CN1CCN(c2nc(N)nc3c2sc2ccc(Cl)cc23)CC1 [Example 67, 8-Chloro-4-(4-methyl-piperazin-1-yl)-benzo[4,5]thieno[3,2-d]pyrimidin-2-ylamine trifluoroacetic acid salt] | 14 | – |
| Nc1nc(N2C[C@@H]3C[C@H]2CN3)c2sc3ccc(Cl)cc3c2n1 [Example 68, (S,S)-8-Chloro-4-(2,5-diaza-bicyclo[2.2.1]hept-2-yl)-benzo[4,5]thieno[3,2-d]pyrimidin-2-ylamine trifluoroacetic acid salt] | – | 840 |
| Nc1nc(N2CCN3CCCC3C2)c2oc3ccc(Cl)cc3c2n1 (stereo not drawn) [Example 69, 8-Chloro-4-(hexahydro-pyrrolo[1,2-a]pyrazin-2-yl)-benzo[4,5]furo[3,2-d]pyrimidin-2-ylamine trifluoroacetic acid salt] | – | 15 |
| CN1CCN(c2nc(N)nc3c2sc2ccc(F)cc23)CC1 [Example 70, 8-Fluoro-4-(4-methyl-piperazin-1-yl)-benzo[4,5]thieno[3,2-d]pyrimidin-2-ylamine trifluoroacetic acid salt] | 18.9 | – |
| Nc1nc(N2CC3CCNC3C2)c2oc3ccc(F)cc3c2n1 (stereo not drawn) [Example 71, 8-Fluoro-4-(hexahydro-pyrrolo[3,4-b]pyrrol-5-yl)-benzo[4,5]furo[3,2-d]pyrimidin-2-ylamine trifluoroacetic acid salt] | – | 7.8 |
| CCN[C@H]1CCCN(c2nc(N)nc3c2oc2ccc(Cl)cc23)C1 [Example 72, (S)-8-Chloro-4-(3-ethylamino-piperidin-1-yl)-benzo[4,5]furo[3,2-d]pyrimidin-2-ylamine trifluoroacetic acid salt] | 343 | – |
| CCN[C@@H]1CCN(c2nc(N)nc3c2oc2ccc(Cl)cc23)C1 [Example 73, (R)-8-Chloro-4-(3-ethylamino-pyrrolidin-1-yl)-benzo[4,5]furo[3,2-d]pyrimidin-2-ylamine trifluoroacetic acid salt] | 75 | – |
| CN[C@H]1CCCN(c2nc(N)nc3c2oc2ccc(Cl)cc23)C1 [Example 74, (S)-8-Chloro-4-(3-methylamino-piperidin-1-yl)-benzo[4,5]furo[3,2-d]pyrimidin-2-ylamine citrate salt] | 216 | – |
| CN(C)[C@H]1CCCN(c2nc(N)nc3c2oc2ccc(Cl)cc23)C1 [Example 75, (S)-8-Chloro-4-(3-dimethylamino-piperidin-1-yl)-benzo[4,5]furo[3,2-d]pyrimidin-2-ylamine trifluoroacetic acid salt] | 650 | – |
| CN[C@@H]1CCN(c2nc(N)nc3c2sc2ccc(F)cc23)C1 [Example 76, (R)-8-Fluoro-4-(3-methylamino-pyrrolidin-1-yl)-benzo[4,5]thieno[3,2-d]pyrimidin-2-ylamine trifluoroacetic acid salt] | 32 | – |
| Nc1nc(N2C[C@@H]3C[C@H]2CN3)c2sc3cc(Br)ccc3c2n1 [Example 77, (S,S)-7-Bromo-4-(2,5-diaza-bicyclo[2.2.1]hept-2-yl)-benzo[4,5]thieno[3,2-d]pyrimidin-2-ylamine trifluoroacetic acid salt] | 3230 | – |
| Nc1nc(N2CC3C(N)C3C2)c2oc3ccc(Cl)cc3c2n1 (stereo not drawn) [Example 78, 4-(6-Amino-3-aza-bicyclo[3.1.0]hex-3-yl)-8-chloro-benzo[4,5]furo[3,2-d]pyrimidin-2-ylamine trifluoroacetic acid salt] | 22 | – |
| NC[C@H]1CCCN1c1nc(N)nc2c1oc1ccc(Cl)cc12 [Example 79, (R)-4-(2-Aminomethyl-pyrrolidin-1-yl)-8-chloro-benzo[4,5]furo[3,2-d]pyrimidin-2-ylamine trifluoroacetic acid salt] | > 10000 | – |
| Nc1nc(N2CC3CCNC3C2)c2oc3ccc(Cl)cc3c2n1 (stereo not drawn) [Example 80, 8-Chloro-4-(hexahydro-pyrrolo[3,4-b]pyrrol-5-yl)-benzo[4,5]furo[3,2-d]pyrimidin-2-ylamine trifluoroacetic acid salt] | – | 3.6 |
| Nc1nc(N2C[C@H]3C[C@@H]2CN3)c2oc3ccc(Cl)cc3c2n1 [Example 81, (R,R)-8-Chloro-4-(2,5-diaza-bicyclo[2.2.1]hept-2-yl)-benzo[4,5]furo[3,2-d]pyrimidin-2-ylamine trifluoroacetic acid salt] | – | 100 |
| Nc1nc(N2C[C@H]3CCCN[C@H]3C2)c2oc3ccc(Cl)cc3c2n1 [Example 82, (R,R)-8-Chloro-4-(octahydro-pyrrolo[3,4-b]pyridin-6-yl)-benzo[4,5]furo[3,2-d]pyrimidin-2-ylamine citrate salt] | – | 21 |

| SMILES | Ki [1] [nM] | Ki [nM] |
| --- | --- | --- |
| Nc1nc(N2C[C@@H]3CCCN[C@@H]3C2)c2oc3ccc(Cl)cc3c2n1 [Example 83, 8-Chloro-4-(octahydro-pyrrolo[3,4-b]pyridin-6-yl)-benzo[4,5]furo[3,2-d]pyrimidin-2-ylamine citrate salt] | – | 4.7 |
| CN[C@@H]1CCN(c2nc(N)nc3c2oc2cccc(C(F)(F)F)c23)C1 [Example 84, (R)-4-(3-Methylamino-pyrrolidin-1-yl)-9-trifluoromethyl-benzo[4,5]furo[3,2-d]pyrimidin-2-ylamine citrate salt] | > 10000 | – |
| COc1cccc2oc3c(N4C[C@@H]5C[C@H]4CN5)nc(N)nc3c12 [Example 85, (S,S)-4-(2,5-Diaza-bicyclo[2.2.1]hept-2-yl)-9-methoxy-benzo[4,5]furo[3,2-d]pyrimidin-2-ylamine trifluoroacetic acid salt] | > 10000 | – |
| COc1cccc2oc3c(N4CCNCC4)nc(N)nc3c12 [Example 86, 9-Methoxy-4-piperazin-1-yl-benzo[4,5]furo[3,2-d]pyrimidin-2-ylamine trifluoroacetic acid salt] | 47 | – |
| COc1cccc2oc3c(N4CCC[C@H](N)C4)nc(N)nc3c12 [Example 87, (S)-4-(3-Amino-piperidin-1-yl)-9-methoxy-benzo[4,5]furo[3,2-d]pyrimidin-2-ylamine trifluoroacetic acid salt] | > 10000 | – |
| COc1cccc2oc3c(N4CCN(C)CC4)nc(N)nc3c12 [Example 88, 9-Methoxy-4-(4-methyl-piperazin-1-yl)-benzo[4,5]furo[3,2-d]pyrimidin-2-ylamine trifluoroacetic acid salt] | 30 | – |
| COc1ccc2oc3c(N4CCN(C)CC4)nc(N)nc3c2c1 [Example 89, 8-Methoxy-4-(4-methyl-piperazin-1-yl)-benzo[4,5]furo[3,2-d]pyrimidin-2-ylamine trifluoroacetic acid salt] | 12 | – |
| Nc1nc(N2CCNCC2)c2oc3cccc(C(F)(F)F)c3c2n1 [Example 90, 4-piperazin-1-yl-9-trifluoromethyl-benzo[4,5]furo[3,2-d]pyrimidin-2-ylamine citrate salt] | 120 | – |
| CN1CCN(c2nc(N)nc3c2oc2cccc(C(F)(F)F)c23)CC1 [Example 91, 4-(4-Methyl-piperazin-1-yl)-9-trifluoromethyl-benzo[4,5]furo[3,2-d]pyrimidin-2-ylamine citrate salt] | 50 | – |
| Nc1nc(N2CCC[C@H](N)C2)c2oc3cccc(C(F)(F)F)c3c2n1 [Example 92, (S)-4-(3-Amino-piperidin-1-yl)-9-trifluoromethyl-benzo[4,5]furo[3,2-d]pyrimidin-2-ylamine citrate salt] | > 10000 | – |
| Nc1nc(N2CCC[C@H](N)C2)c2oc3ccc(Cl)c(Cl)c3c2n1 [Example 93, (S)-4-(3-Amino-piperidin-1-yl)-8,9-dichloro-benzo[4,5]furo[3,2-d]pyrimidin-2-ylamine trifluoroacetic acid salt] | > 10000 | – |
| Nc1nc(N2C[C@@H]3C[C@H]2CN3)c2oc3cccc(C(F)(F)F)c3c2n1 [Example 94, (S,S)-4-(2,5-Diaza-bicyclo[2.2.1]hept-2-yl)-9-trifluoromethyl-benzo[4,5]furo[3,2-d]pyrimidin-2-ylamine citrate salt] | 880 | – |
| CN(CCN)c1nc(N)nc2c1oc1ccc(Cl)cc12 [Example 96, N^4-(2-Amino-ethyl)-8-chloro-N^4-methyl-benzo[4,5]furo[3,2-d]pyrimidine-2,4-diamine trifluoroacetic acid salt] | 2.8 | – |
| Nc1nc(N2CC3CCC(C2)N3)c2oc3ccc(Cl)cc3c2n1 [Example 97, 8-Chloro-4-(3,8-diaza-bicyclo[3.2.1]oct-3-yl)-benzo[4,5]furo[3,2-d]pyrimidin-2-ylamine trifluoroacetic acid salt] | – | 42 |
| Nc1nc(N2C[C@@H]3C[C@H]2CN3)c2oc3ccc(Cl)c(Cl)c3c2n1 [Example 98, (S,S)-8,9-Dichloro-4-(2,5-diaza-bicyclo[2.2.1]hept-2-yl)-benzo[4,5]furo[3,2-d]pyrimidin-2-ylamine trifluoroacetic acid salt] | > 10000 | – |
| CN[C@@H]1CCN(c2nc(N)nc3c2oc2ccc(Cl)c(Cl)c23)C1 [Example 99, (R)-8,9-Dichloro-4-(3-methylamino-pyrrolidin-1-yl)-benzo[4,5]furo[3,2-d]pyrimidin-2-ylamine trifluoroacetic acid salt] | 10 | – |
